The target in this test is T1, hNR2B (Homo sapiens, UniProt Q05586+Q13224).
T1 construct: expressed in transfected cells; host or cells: Xenopus laevis oocytes, cRNA-injected
Kind of test: Electrophysiology NMDA receptor experiments: two electrode voltage-clamp in Xenopus laevis oocytes, hNR2B IC50. It counts as cell-based. As to conditions: 50 μM glutamate, 30 μM glycine. For orientation: Two-electrode voltage clamp holds a large cell at a set potential and records current.

The mark [1] stands for this setting: hNR2B activity class, read-out: Activity.
Where [2] appears, read: voltage clamp -40 mV, read-out: hNR2B IC50.

Among the data in US8722670B2, “Selective NR2B antagonists” (Bristol-Myers Squibb Company, priority 2011, dated 2014) are IC50 values, retold here.

Each structure is given as a SMILES string. pIC50: −log10 of the molar value. Read-outs that look alike come from different tables or passages of the source.

T1 sequence (Q13224 27-1484, other chains not shown): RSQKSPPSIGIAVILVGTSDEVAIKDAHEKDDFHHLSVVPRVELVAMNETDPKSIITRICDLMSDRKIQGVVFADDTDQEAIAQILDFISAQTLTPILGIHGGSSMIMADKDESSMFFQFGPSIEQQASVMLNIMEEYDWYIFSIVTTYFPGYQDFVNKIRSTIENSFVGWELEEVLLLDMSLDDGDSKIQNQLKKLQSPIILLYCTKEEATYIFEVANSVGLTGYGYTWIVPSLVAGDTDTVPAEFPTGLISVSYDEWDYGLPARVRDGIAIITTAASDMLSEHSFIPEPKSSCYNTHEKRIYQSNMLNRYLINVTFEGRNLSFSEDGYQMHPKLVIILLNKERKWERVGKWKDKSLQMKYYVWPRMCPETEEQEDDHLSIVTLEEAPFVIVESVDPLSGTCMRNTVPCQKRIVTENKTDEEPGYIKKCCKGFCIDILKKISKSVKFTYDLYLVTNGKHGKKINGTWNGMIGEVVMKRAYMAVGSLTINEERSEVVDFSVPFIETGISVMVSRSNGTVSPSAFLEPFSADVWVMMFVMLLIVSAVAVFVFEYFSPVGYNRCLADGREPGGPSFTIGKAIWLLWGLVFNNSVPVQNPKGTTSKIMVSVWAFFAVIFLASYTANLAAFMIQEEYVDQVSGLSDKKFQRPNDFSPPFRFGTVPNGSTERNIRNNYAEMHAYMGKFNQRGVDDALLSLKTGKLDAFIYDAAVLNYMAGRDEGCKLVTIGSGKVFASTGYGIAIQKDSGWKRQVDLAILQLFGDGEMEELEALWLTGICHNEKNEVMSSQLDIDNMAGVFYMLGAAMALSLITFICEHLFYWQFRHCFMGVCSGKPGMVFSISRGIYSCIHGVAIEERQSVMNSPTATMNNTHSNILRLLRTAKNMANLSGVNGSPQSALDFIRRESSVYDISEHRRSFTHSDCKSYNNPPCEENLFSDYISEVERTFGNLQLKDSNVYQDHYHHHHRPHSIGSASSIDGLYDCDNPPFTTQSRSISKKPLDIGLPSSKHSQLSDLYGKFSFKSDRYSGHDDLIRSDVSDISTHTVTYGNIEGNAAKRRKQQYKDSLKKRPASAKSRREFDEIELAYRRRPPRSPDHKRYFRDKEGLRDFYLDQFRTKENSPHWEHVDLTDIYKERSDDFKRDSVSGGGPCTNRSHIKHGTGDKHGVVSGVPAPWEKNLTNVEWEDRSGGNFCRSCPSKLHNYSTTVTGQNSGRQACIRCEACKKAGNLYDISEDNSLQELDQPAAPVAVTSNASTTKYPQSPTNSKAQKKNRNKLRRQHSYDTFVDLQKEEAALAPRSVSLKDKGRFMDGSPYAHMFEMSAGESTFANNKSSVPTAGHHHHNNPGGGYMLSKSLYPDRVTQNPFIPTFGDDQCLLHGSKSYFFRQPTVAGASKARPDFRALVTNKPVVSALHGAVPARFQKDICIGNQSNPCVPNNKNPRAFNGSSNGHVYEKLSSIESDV
Experimental: Stage V and VI oocytes were surgically removed from the ovaries of large, well-fed and healthy Xenopus laevis anesthetized with 3-amino-benzoic acid ethyl ester (3 gm/l). […] Oocytes were then washed in the same solution supplemented with 1.8 mM CaCl2 and maintained in Barth's solution comprised of (in mM): 88 NaCl, 1 KCl, 2.4 NaHCO3, 10 HEPES, 0.82 MgSO4, 0.33 Ca(NO3)2, and 0.91 CaCl2 and supplemented with 100 μg/ml gentamycin, 10 μg/ml streptomycin, and 10 μg/ml penicillin.
Two electrode voltage-clamp recordings were made 2-7 days post-injection. Oocytes were placed in a dual-track plexiglass recording chamber with a single perfusion line that splits in a Y-configuration to perfuse two oocytes. Dual recordings were made at room temperature (23° C.) using two Warner OC725B two-electrode voltage clamp amplifiers, arranged as recommended by the manufacturer. Glass microelectrodes (1-10 Megaohms) were filled with 300 mM KCl (voltage electrode) or 3 M KCl (current electrode). The bath clamps communicated across silver chloride wires placed into each side of the recording chamber, both of which were assumed to be at a reference potential of 0 mV. Oocytes were perfused with a solution comprised of (in mM) 90 NaCl, 1 KCl, 10 HEPES, 10 EDTA and 0.5 BaCl2; pH 7.4, adjusted by addition of NaOH. Oocytes were recorded under voltage clamp at −40 mV. Final concentrations for glutamate and glycine were 50 μM and 30 μM, respectively. […] Dose response curves consisting of four to eight concentrations were obtained in this manner. The baseline leak current at −40 mV was measured before and after recording, and the full recording linearly corrected for any change in leak current. The level of inhibition by applied experimental compounds was expressed as a percent of the initial glutamate response, and averaged together across oocytes from multiple experiments.
For NMDA receptor subtype selectivity experiments human GluN1/GluN2A, GluN1/GluN2C, and GluN1/GluN2D cRNAs were expressed in Xenopus laevis as described above. Here, 10 μM concentrations of the antagonist was perfused with 50 μM glutamate and 30 μM glycine onto the oocyte for two min and the remaining current in the presence of the antagonist was compared to the maximal current obtained with 50 μM glutamate and 30 μM glycine alone (defined as 100%). When IC50 determinations were made against other NMDA receptor subtypes the protocol as described above was followed.

For `O=C1CCc2cc(OCc3nnc(Nc4ccc(C(F)(F)F)cc4)s3)ccc2N1` [Example 242], the pIC50 under setting [1] is above 6.70. As to `O=c1ccc2cc(OCc3nnc(Nc4ccc(Cl)c(Cl)c4)s3)ccc2[nH]1` [Example 243], the pIC50 under setting [1] is above 6.70.

For `O=c1ccc2cc(OCc3nnc(Nc4ccc(Cl)cc4)s3)ccc2[nH]1` [Example 244], the pIC50 under setting [1] is above 6.70. On to `O=c1ccc2cc(OCc3nnc(Nc4ccc(OC(F)(F)F)cc4)s3)ccc2[nH]1` [Example 245], for which, under setting [1], the pIC50 is above 6.70. On the same count and under the same terms, the result for `O=C1CCc2cc(OCc3nnc(Nc4ccc(OC(F)(F)F)cc4)s3)ccc2N1` [Example 247] reads above 6.70; that for `O=C1CCc2cc(OCc3nnc(NCc4ccc(Cl)c(Cl)c4)s3)ccc2N1` [Example 248], 6.00 to 6.70; that for `O=c1ccc2cc(OCc3nnc(NCc4ccc(Cl)c(Cl)c4)s3)ccc2[nH]1` [Example 249], 6.00 to 6.70. Regarding `O=C1CCc2cc(OCc3nnc(Nc4ccc(Cl)cc4)s3)ccc2N1` [Example 250], under setting [1], the pIC50 was 6.00 to 6.70. As for `O=c1ccc2cc(OCc3nnc(NCc4ccc(Cl)nc4)s3)ccc2[nH]1` [Example 251], under setting [2], the pIC50 is 5.03. The same measure, in the same setting: the result for `O=C1CCc2cc(OCc3csc(Nc4ccc(Cl)c(Cl)c4)n3)ccc2N1` [Example 252, 6-((2-(3,4-dichlorophenylamino)thiazol-4-yl)methoxy)-3,4-dihydroquinolin-2(1H)-one] reads 4.62; that for `O=c1ccc2cc(OCc3cc(NCc4ccc(OC(F)F)cc4)no3)ccc2[nH]1` [Example 253, 6-((3-(4-(difluoromethoxy)benzylamino)isoxazol-5-yl)methoxy)quinolin-2(1H)-one], 6.49; that for `O=c1ccc2cc(OCc3cc(Nc4ccc(Cl)c(Cl)c4)no3)ccc2[nH]1` [Example 254], 6.71. For the compound `O=c1ccc2cc(OCc3cc(Nc4ccc(OC(F)F)c(Cl)c4)no3)ccc2[nH]1` [Example 255], the pIC50 under setting [1] was above 6.70. With `O=c1ccc2cc(OCc3cc(Nc4ccc(Cl)c(F)c4)no3)ccc2[nH]1` [Example 256], the pIC50 under setting [1] was above 6.70. In the case of `O=c1ccc2cc(OCc3cc(Nc4ccc(Cl)c(F)c4)no3)ccc2[nH]1` [Example 257], the pIC50 under setting [2] was 8.00.

As for `FC(F)Oc1ccc(Nc2cc(COc3ccc4[nH]ncc4c3)on2)cc1Cl` [Example 258], the pIC50 under setting [1] is above 6.70. On the same count and under the same terms, the result for `O=c1ccc2cc(OCc3cc(Nc4ccc(OC(F)F)cc4)no3)ccc2[nH]1` [Example 260] reads above 6.70. `COc1ccc(Nc2cc(COc3ccc4[nH]c(=O)ccc4c3)on2)cc1Cl` [Example 261]: the pIC50 under setting [1] is above 6.70. The same measure, in the same setting: the result for `Cc1ccc(Nc2cc(COc3ccc4[nH]c(=O)ccc4c3)on2)cc1C` [Example 262] reads 5.00 to 6.00; that for `O=c1ccc2cc(OCc3cc(Nc4ccc(Cl)c(C(F)(F)F)c4)no3)ccc2[nH]1` [Example 263], 5.00 to 6.00. For the compound `O=c1ccc2cc(OCc3cc(Nc4ccc(C(F)(F)F)cc4)no3)ccc2[nH]1` [Example 264], the pIC50 under setting [1] was above 6.70. Consider `CCc1ccc(Nc2cc(COc3ccc4[nH]c(=O)ccc4c3)on2)cc1` [Example 265], for which the pIC50 under setting [1] is above 6.70. With `CCCc1ccc(Nc2cc(COc3ccc4[nH]c(=O)ccc4c3)on2)cc1` [Example 266], under setting [1], the pIC50 was below 5.00.

On to `O=c1ccc2cc(OCc3cc(Nc4ccc(OC(F)F)c(F)c4)no3)ccc2[nH]1` [Example 267], for which the pIC50 under setting [1] was above 6.70.

`Cc1cc(Nc2cc(COc3ccc4[nH]c(=O)ccc4c3)on2)ccc1OC(F)F` [Example 268]: the pIC50 under setting [1] is above 6.70. As to `O=c1ccc2cc(OCc3cc(Nc4ccc(C(F)(F)F)c(Cl)c4)no3)ccc2[nH]1` [Example 269], the pIC50 under setting [1] is above 6.70.

Turning to `Cc1cc(Nc2cc(COc3ccc4[nH]c(=O)ccc4c3)on2)ccc1F` [Example 270], under setting [1], the pIC50 is 5.00 to 6.00.

`Cc1ccc(Nc2cc(COc3ccc4[nH]ncc4c3)on2)cc1F` [Example 271]: under setting [1], the pIC50 is above 6.70. Still for that read-out and setting: the result for `Cc1cc(Nc2cc(COc3ccc4[nH]ncc4c3)on2)ccc1OC(F)F` [Example 272] reads above 6.70.
